Legend:
Experiment in all cases: relative viability (nuclei count vs DMSO), 5 days (fraction); higher = more cells survive
[1] = compound: CC1=CC(=C(N1C2=CC=C(C=C2)Cl)C)C(=O)CN3CCCCC3 [IU1-47] + COc1cccc2cc(-c3nc([C@H]4CC[C@H](C(=O)O)CC4)n4ncnc(N)c34)[nH]c12 [OSI-027] (partner 0.5 µM)
Procedure, shortened: (§1)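 Dosing by pin tool came one day after lung cancer cell lines were seeded in 1536-well plates, using either one drug or a fixed anchor-drug dose plus five library-drug doses (not always all listed) in √10 steps. After 5 days, nuclei were counted on 4× images. Relative viability is treated-well nuclei count divided by vehicle-well nuclei count, and values are medians of duplicate plates.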

[2] = compound: CC1=CC(=C(N1C2=CC=C(C=C2)Cl)C)C(=O)CN3CCCCC3 [IU1-47] + C[C@]1(O)C[C@@H](c2nc(-c3ccc4ccc(-c5ccccc5)nc4c3)c3c(N)nccn32)C1 [Linsitinib] (partner 1 µM)
Procedure, shortened: as §1

[3] = compound: CC1=CC(=C(N1C2=CC=C(C=C2)Cl)C)C(=O)CN3CCCCC3 [IU1-47] + N=C(N)NC(=N)NCCc1ccccc1 [Phenformin] (partner 250 µM)
Procedure, shortened: as §1

[4] = compound: Cc1nc(C(=O)NCC(=O)O)c(O)c2ccc(Oc3ccccc3)cc12 [FG-4592] + CCNC(=O)c1noc(-c2cc(C(C)C)c(O)cc2O)c1-c1ccc(CN2CCOCC2)cc1 [Luminespib] (partner 0.01 µM)
Procedure, shortened: as §1

Row | Cell Line | relative viability ([1]; first compound 0.08 µM) | relative viability ([1]; first compound 0.253 µM) | relative viability ([1]; first compound 0.8 µM) | relative viability ([1]; first compound 8 µM) | relative viability ([2]; first compound 0.08 µM) | relative viability ([2]; first compound 0.253 µM) | relative viability ([2]; first compound 0.8 µM) | relative viability ([2]; first compound 8 µM) | relative viability ([3]; first compound 0.08 µM) | relative viability ([3]; first compound 0.253 µM) | relative viability ([3]; first compound 0.8 µM) | relative viability ([3]; first compound 8 µM) | relative viability ([4]; first compound 0.08 µM) | relative viability ([4]; first compound 0.253 µM) | relative viability ([4]; first compound 2.53 µM) | relative viability ([4]; first compound 8 µM) | relative viability ([4]; first compound 0.8 µM) | relative viability ([1]; first compound 2.53 µM) | relative viability ([2]; first compound 2.53 µM) | relative viability ([3]; first compound 2.53 µM)
1 | NCI-H1793 | 0.245 | 0.25 | 0.37 | 0.286 | 0.822 | 0.868 | 0.976 | 0.689 | 0.419 | 0.259 | 0.475 | 0.352 | 0.155 | 0.227 | 0.157 | 0.185 |  |  |  | 
2 | NCI-H1734 | 0.703 | 0.659 | 0.662 | 0.565 | 0.883 | 0.954 | 0.876 | 0.781 | 0.441 | 0.423 | 0.369 | 0.376 | 0.183 | 0.185 | 0.192 | 0.178 | 0.177 |  |  | 
3 | LXF-289 | 0.913 | 0.768 | 0.811 | 0.736 | 0.984 | 0.998 | 1.02 | 0.954 | 0.533 | 0.563 | 0.541 | 0.439 | 0.65 | 0.675 | 0.596 | 0.711 | 0.712 | 0.591 | 0.954 | 0.517
4 | H3255 | 0.654 | 0.675 | 0.624 | 0.561 | 1.16 | 1.17 | 0.957 | 0.914 | 0.426 | 0.358 | 0.294 | 0.352 | 0.891 | 0.804 | 0.945 | 0.875 | 0.848 | 0.465 | 0.905 | 0.365
5 | 201T | 0.747 | 0.784 | 0.886 | 0.832 | 1.05 | 1.02 | 1.06 | 1.11 | 0.419 | 0.435 | 0.486 | 0.362 | 1.04 | 0.984 | 1.03 | 1.06 | 1.06 | 0.813 |  | 
6 | NCI-H2126 | 0.729 | 0.883 | 0.673 | 0.649 | 0.733 | 0.76 | 0.74 | 0.778 | 0.535 | 0.515 | 0.508 | 0.529 | 0.918 | 0.904 | 0.759 | 0.603 | 0.887 | 0.539 | 0.531 | 

Reference: the supplement of paper PMC10307832
